Results on 27 molecules are retold here after patent US7772192B2, “Compositions and methods for treatment of disease with acetylated disaccharides” (The Regents of the University of California, priority 2003, dated 2010).

“And” between values parts separate entries of the source, which are not always exact repeats. Equal values may be shown once. Read-outs that look alike come from different tables or passages of the source.

Test [1] concerns mixed oligosaccharides. Kind of test: Oligosaccharide priming, [6-3H]Gal incorporation. The test is classed as cell-based. The source says: (§1) A 4-deoxy modified acetylated disaccharide inhibits sLe^X expression in the absence of oligosaccharide priming.
For test [2], the system named is U937 cells. Kind of test: sLe^X expression in U937 cells. In kind it is cell-based.
Excerpt: as §1

The subject of test [3] is LLC cells. Kind of test: Experimental metastasis of pretreated LLC cells. The following applies: cells treated 5 days, 3 weeks. The test is classed as in vivo, mice. The procedure:
(A) LLC cells were treated in culture for 4 days with peracetylated GlcNAcβ3Gal-NM or vehicle (DMSO/propylene glycol, v/v 1:1). Single-cell suspensions (2×10^5) were injected in the tail-veins of Es1(e) mice. After 3 weeks, the mice were sacrificed and the number of tumors present on the surface of the lungs was determined by visual inspection.
LLC cells were treated in culture for 5 days with 4-deoxy AcGnG-NM, AcGnG-NM or vehicle (DMSO:propylene glycol) and then a single-cell suspension (2×10^5 cells) was injected in the tail vein of mice. After 3 weeks, the number of tumors present on the surface of the lungs was determined.

For test [4], the system named is β4GalTI. The following applies: cited from earlier work.
In test [5] the test system is Lewis carbohydrate antigens on cells. The following applies: monosaccharide; cited from earlier work.
Test [6] relates to β4GalTI. Nature of the test: Acceptor specificity and inhibitory action of GlcNAc derivatives (β4galactosyltransferase). In kind it is biochemical. The following applies: no reference given. The source says:
The compounds in Table 1 were selected based on information about β4GalTI, also known as lactose synthase. The enzyme adds galactose to GlcNAc-terminated oligosaccharides on glycoproteins and glycolipids, and will produce lactose in the presence of the cofactor, α-lactalbumin (Berger et al., Biochimie., 85, 261-274, 2003). It is part of a multigene family of β4galactosyltransferases (Hennet, Cell Mol Life. Sci., 59, 1081-1095, 2002; Amado et al., Biochim. Biophys. Acta Gen. Subj., 1473, 35-53, 1999). β4GalTI has been studied kinetically, its substrate specificity has been well documented, and X-ray structures with and without UDP-Gal are available (Gastinel et al., EMBO J., 18, 3546-3557, 1999; Ramakrishnan et al., J. Mol. Biol., 310, 205-218, 2001; Ramakrishnan et al., J. Mol. Biol., 318, 491-502, 2002).
β4GalTI will act on free GlcNAc, GlcNAc-terminated oligosaccharides and GlcNAc glycosides, including GlcNAcβ3Gal-R (Table 2). […] One possibility for the discrepancy may be that the large aromatic aglycone in our compound may facilitate binding to the enzyme. […]

Test [7] relates to LS180 cells adhering to recombinant E- or P-selectin. Kind of test: Cell adhesion to immobilized selectins, control values given for E- and P-selectin together. The test is classed as cell-based, human. The method, then:
Cell adhesion to immobilized selectins. 96-well plates were coated overnight at 4° C. with recombinant E-selectin (4 μg/ml) or P-selectin (2 μg/ml) (R & D Systems) and blocked with 1% BSA/PBS. LS180 cells were grown for 5 days with various amounts of acetylated disaccharide, harvested, labeled with Calcein AM (5 μM, Molecular Probes) in DMEM/1% FBS, and allowed to settle at room temperature on selectin-coated wells (5×10^4 cells/well). Plates were then stirred at 75 rpm for 30 min (Orbit shaker, Lab-Line Instruments) followed by immersion upside-down in a vessel filled with Hank's buffered saline solution (HBSS, Sigma), which allowed non-adherent cells to fall under gravity. St John et al., J. Immunol Methods, 170: 159-166, 1994. The wells were then washed by aspiration using HBSS. LS180 cells were less adherent to P-selectin, so the immersion step was not necessary prior to washing. […] Fluorescence was measured using a 96-well fluorimeter (CytoFluor II), and the average of triplicate measurements was determined±standard error. Cell viability was judged to be >90% by Trypan blue exclusion at the end of each experiment.
Adhesion to selectins is altered in disaccharide-treated tumor cells. Treatment of LS180 cells with AcGnG-NM was not toxic to the cells up to 100 μM based on growth curves and exclusion of Trypan blue. […]

For test [8], the system named is sLe^X on LS180 cell surface. Nature of the test: ELISA with CSLEX-1 mAb of cell-surface sLe^X. The following applies: LS180 cells. The test is classed as cell-based, human. Background: An ELISA detects its analyte on a solid surface through an enzyme-linked reagent.
Test [9] deals with sialyl Lewis X in HL-60, LS180, murine Lewis lung carcinoma, B16 murine melanoma cells. Kind of test: Inhibition of sialyl Lewis X formation in cultured cells. In kind it is cell-based. The source says:
The disaccharides can be acylated with, e.g., acetyl, butyryl or benzoyl groups to reduce their hydrophilicity and make them permeable to cell membranes. […] The various disaccharides described above and their acylated or aryl derivatives are logical extensions of the present invention. In addition, analogs of the above compounds in which critical hydroxyl groups are missing or alkylated would bind to glycosyltransfersase and inhibit their activity.

Where [10] appears, read: aromatic aglycones, read-out: Ki.

Take “4′-deoxy-GlcNAcβ3Gal-O-NM [4-deoxy AcGnG-NM]”: the “incorporation of [6-^3H]Gal into mixed oligosaccharides” value in test [1] was “does not”. Besides, the “sLe^X expression” value in [2] was “inhibit sLe^X expression”; in test [2] (listed as 4-deoxy-GlcNAcβ3Gal-NM), “inhibits formation of sLe^X”. Besides, the “experimental metastasis (tumors on the surface of the lungs)” value in [3] was “inhibited experimental metastasis”.
What is called Km is the concentration of substrate that gives half-maximal velocity. In general, Vmax refers to the top rate of the reaction or transport when substrate is in excess. Regarding `CO[C@@H]1O[C@H](CO)[C@@H](O)[C@H](OC)[C@H]1NC(C)=O` [3-O-methyl-GlcNAcβ-O-Me], the Km in test [4] (acceptor, read-out: Km) is 77000 µM. For the same molecule, the Vmax in [4] is 2.4 nmol/min.
Consider `CO[C@@H]1O[C@H](CO)[C@@H](O)C[C@H]1NC(C)=O` [3-deoxy-GlcNAcβ-OMe], for which the Km in test [4] (acceptor, read-out: Km) is 4200 µM.
Usually Ki stands for the dissociation constant of the complex between target and ligand, obtained from inhibition or displacement. For the molecule `CO[C@@H]1O[C@H](CO)[C@H](O)[C@H](O[C@@H]2O[C@H](CO)[C@@H](O)[C@H](F)[C@H]2NC(C)=O)[C@H]1O` [3′-F-GlcNAcβ3Galβ-OMe], the Ki in test [4] (read-out: Ki) is 2700 µM.
As for `CC(=O)NC1C(OCc2ccccc2)OC(CO)C(N)C1O` (centres unmarked) [4-NH2-GlcNAcβ-OBn], the Km entry in [4] (acceptor, unit not given) is “Inactive”. The Ki in test [4] (read-out: Ki) was 850 µM. In [4] (unit not given), the Vmax entry was “Inactive”.
Turning to `COC1OC(CO)C(OC)C(O)C1NC(C)=O` (centres unmarked) [4-O-methyl-GlcNAcβ-O-Me], the Km entry in test [4] (acceptor, unit not given) is recorded as “Inactive”. Also, the inhibition constant (Ki) entry in [4] (result in words) is “No inhibition”. For the same molecule, in test [4] (unit not given), the Vmax result was “Inactive”.
For `COC1OC(CO)CC(O)C1NC(C)=O` (centres unmarked) [4-deoxy-GlcNAcβ-O-Me], in [4] (acceptor, unit not given), the Km entry is given as “Inactive”. Besides, the “inhibition of the enzyme (β4GalT1)” value in test [4] is listed as “did not inhibit”. Also, the Ki result in test [4] (result in words) is recorded as “No inhibition”. The Vmax entry in test [4] (unit not given) was “Inactive”.
In the case of `COC1OC(CO)C(F)C(O)C1NC(C)=O` (centres unmarked) [4-fluoro-GlcNAcβ-OMe], the Km result in [4] (acceptor, unit not given) is reported as “Inactive”. For the same molecule, the Ki entry in [4] (result in words) is “No inhibition”. The Vmax entry in [4] (unit not given) is listed as “Inactive”.
Take `COC1OC(CO)C(S)C(O)C1NC(C)=O` (centres unmarked) [4-thio-GlcNAcβ-OMe]: in [4] (acceptor, unit not given), the Km result is recorded as “Inactive”. The Ki entry in test [4] (result in words) is “No inhibition”. Moreover, in test [4] (unit not given), the maximal velocity (Vmax) entry is reported as “Inactive”.
With `COC1OC(CO)C(O)C(OC2OC(CO)CC(O)C2NC(C)=O)C1O` (centres unmarked) [4′-deoxy-GlcNAcβ3Galβ-OMe], the Km result in test [4] (acceptor, unit not given) is reported as “Inactive”. Besides, the “inhibition of the enzyme (β4GalT1)” value in [4] is “did not inhibit”. In test [4] (result in words), the Ki result is given as “No inhibition”.
Regarding `COC1OC(COC2OC(CO)CC(O)C2NC(C)=O)C(O)C(O)C1O` (centres unmarked) [4′-deoxy-GlcNAcβ6Glcβ-OMe], the Km entry in test [4] (acceptor, unit not given) is “Inactive”. Also, the Ki entry in test [4] (result in words) is reported as “No inhibition”.
For the molecule `COC[C@H]1O[C@@H](OC)[C@H](NC(C)=O)[C@@H](O)[C@@H]1O` [6-O-methyl-GlcNAcβ-O-Me], the Vmax in test [4] is reported as 1.1 nmol/min.
With `CO[C@@H]1O[C@H](C)[C@@H](O)[C@H](O)[C@H]1NC(C)=O` [6-deoxy-GlcNAcβ-O-Me], the Km in test [4] (acceptor, read-out: Km) was 500 µM.
For the molecule `COC1OC(CO)C(O)C(OC2OC(CS)C(O)C(O)C2NC(C)=O)C1O` (centres unmarked) [6′-thio-GlcNAcβ3Galβ-OMe], the Km entry in test [4] (acceptor, unit not given) is given as “Inactive”. Moreover, the “inhibition of the enzyme (β4GalT1)” value in test [4] is given as “weak inhibitor”. For the same molecule, the Ki in [4] (read-out: Ki) was 1000 µM. Also, in test [4] (unit not given), the Vmax entry is given as “Inactive”.
For `CO[C@@H]1O[C@H](CO[C@@H]2O[C@H](CS)[C@@H](O)[C@H](O)[C@H]2NC(C)=O)[C@@H](O)[C@H](O)[C@H]1O` [6′-thio-GlcNAcβ6Glcβ-OMe], the Km in test [4] (acceptor, read-out: Km) was 1200 µM.
With `OC[C@@H]1C[C@H](O)[C@@H](O)C(O)O1` (some centres unmarked) [Compound 4-deoxy-Glc, 4-deoxy-Glc], the “inhibition of β4GalT1” value in test [4] (in the presence of lactalbumin) is “weak inhibitor”.
For the molecule `CC(=O)N[C@H]1[C@@H](OCc2ccccc2)O[C@H](CO)[C@H](O)[C@@H]1O` [GalNAcα-O-benzyl], the “concentration needed to achieve a similar level of inhibition” value in [5] was 1 to 5 mM.
In the case of `CC(=O)N[C@H]1C(O)O[C@H](CO)[C@@H](O)[C@@H]1O` (some centres unmarked) [GlcNAc], the Km in test [4] (read-out: Km) was 1000 to 10000 µM.
With `CC(=O)N[C@H]1[C@H](O[C@H]2[C@@H](O)[C@@H](CO)O[C@@H](OCc3ccc4ccccc4c3)[C@@H]2O)O[C@H](CO)[C@@H](O)[C@@H]1O` [GlcNAcβ3Galβ-O-2-NM], the Km in [6] is < 10 µM.
As for `CO[C@@H]1O[C@H](CO)[C@H](O)[C@H](O[C@@H]2O[C@H](CO)[C@@H](O)[C@H](O)[C@H]2NC(C)=O)[C@H]1O` [GlcNAcβ3Galβ-OMe], in test [4] (acceptor, read-out: Km), the Km was 1100 µM.
Consider `CC(=O)NC1C(Oc2cccc3ccccc23)OC(CO)C(O)C1O` (centres unmarked) [GlcNAcβ-O-1-naphthol], for which the Ki in test [4] (setting [10]) was 22 µM.
With `CC(=O)N[C@H]1[C@H](Oc2c(Br)ccc3ccccc23)O[C@H](CO)[C@@H](O)[C@@H]1O` [GlcNAcβ-O-2-bromonaphthol], the Ki in test [4] (setting [10]) was 7.6 µM.
In the case of `CC(=O)N[C@H]1[C@H](Oc2c(C)ccc3ccccc23)O[C@H](CO)[C@@H](O)[C@@H]1O` [GlcNAcβ-O-2-methylnaphthol], the Ki in test [4] (setting [10]) was 3.5 µM.
`CC(=O)NC1C(Oc2ccc3ccccc3c2)OC(CO)C(O)C1O` (centres unmarked) [GlcNAcβ-O-2-naphthol]: the Ki in test [4] (setting [10]) was 9.5 µM.
`CO[C@@H]1O[C@H](CO)[C@@H](O)[C@H](O)[C@H]1NC(C)=O` [GlcNAcβ-O-Me]: the Km in test [4] (acceptor, read-out: Km) is 1300 µM and 1800 µM and 1500 µM.
Regarding “Galβ1,3Galβ-O-naphthalenemethanol [AcGG-NM]”, the “extent of adhesion normalized to cells not treated with disaccharide” value in test [7] (E- and P-selectin, disaccharide at 50 μM) is listed as 0.95-1.1. Besides, in [7] (LS180 cells), the “adhesion to either selectin conjugate” value is recorded as “no effect”. The “expression of sLe^X on the cell surface” value in [8] is “no effect”.
For “Galβ1,4GlcNAcβ-O-naphthalenemethanol [AcGGn-NM]”, the “formation of sialyl Lewis X” value in test [9] was “inhibit the formation of sialyl Lewis X”.
